Results from PubChem BioAssay AID2060360 (Molecular Pharmacology Branch, DTP, NCI, 2025).
Values joined by “and” are separate entries in the source; they are usually repeats but may differ in a detail not shown here. Equal values may be shown once.

System: 282377-053-R-J1-PDC tumor spheroids, viability
Experiment: Anticancer human tumor 282377-053-R-J1-PDC patient-derived colon adenocarcinoma cell line growth inhibition [TAK]
Conditions: spheroids with HUVEC and MSC; for viability, T/C: stronger effect = lower value
Summary of the method: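 Spheroids of 60% malignant cells, 25% HUVEC and 15% hMSC were exposed to targeted agents combined with TAK-243 or ipatasertib. Concentrations started at or near clinical Cmax (10 microM if unknown) and descended in half-log steps.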

[1] = curve of first compound, second compound 0.3 µM
[2] = curve of first compound, second compound 0.949 µM
[3] = curve of first compound, second compound 3 µM
[4] = curve of first compound, second compound 9.49 µM
[5] = curve of first compound, second compound 30 µM
[6] = second compound 0.3 µM, first compound 0.000316 µM
[7] = second compound 0.3 µM, first compound 0.001 µM
[8] = second compound 0.3 µM, first compound 0.00316 µM
[9] = second compound 0.3 µM, first compound 0.01 µM
[10] = second compound 0.949 µM, first compound 0.000316 µM
[11] = second compound 0.949 µM, first compound 0.001 µM
[12] = second compound 0.949 µM, first compound 0.00316 µM
[13] = second compound 0.949 µM, first compound 0.01 µM
[14] = second compound 3 µM, first compound 0.000316 µM
[15] = second compound 3 µM, first compound 0.001 µM
[16] = second compound 3 µM, first compound 0.00316 µM
[17] = second compound 3 µM, first compound 0.01 µM
[18] = second compound 9.49 µM, first compound 0.000316 µM
[19] = second compound 9.49 µM, first compound 0.001 µM
[20] = second compound 9.49 µM, first compound 0.00316 µM
[21] = second compound 9.49 µM, first compound 0.01 µM
[22] = second compound 30 µM, first compound 0.000316 µM
[23] = second compound 30 µM, first compound 0.001 µM
[24] = second compound 30 µM, first compound 0.00316 µM
[25] = second compound 30 µM, first compound 0.01 µM
[26] = second compound 0.3 µM, first compound 0.0316 µM
[27] = second compound 0.3 µM, first compound 0.1 µM
[28] = second compound 0.949 µM, first compound 0.0316 µM
[29] = second compound 0.949 µM, first compound 0.1 µM
[30] = second compound 3 µM, first compound 0.0316 µM
[31] = second compound 3 µM, first compound 0.1 µM
[32] = second compound 9.49 µM, first compound 0.0316 µM
[33] = second compound 9.49 µM, first compound 0.1 µM
[34] = second compound 30 µM, first compound 0.0316 µM
[35] = second compound 30 µM, first compound 0.1 µM
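Further: spheroids exposed to drugs for seven days before readout.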

CC(C)CC(NC(=O)C(Cc1ccccc1)NC(=O)c1cnccn1)B(O)O (stereo not drawn) + CC(C)NCC(C(=O)N1CCN(c2ncnc3c2C(C)CC3O)CC1)c1ccc(Cl)cc1
IC50 [1]: > 10 nM
IC50 [2]: > 10 nM
IC50 [3]: > 10 nM
IC50 [4]: 7.5 nM
IC50 [5]: 7.96 nM
viability, T/C (second compound 0.3 µM, first compound 31.6 pM): 105%
viability, T/C (second compound 0.3 µM, first compound 0.0001 µM): 96%
viability, T/C [6]: 97.5%
viability, T/C [7]: 98.3%
viability, T/C [8]: 98.5%
viability, T/C [9]: 80.8%
viability, T/C (second compound 0.949 µM, first compound 31.6 pM): 93%
viability, T/C (second compound 0.949 µM, first compound 0.0001 µM): 90.7%
viability, T/C [10]: 92.5%
viability, T/C [11]: 101%
viability, T/C [12]: 93.1%
viability, T/C [13]: 56.5%
viability, T/C (second compound 3 µM, first compound 31.6 pM): 90.2%
viability, T/C (second compound 3 µM, first compound 0.0001 µM): 84.2%
viability, T/C [14]: 87.7%
viability, T/C [15]: 86.6%
viability, T/C [16]: 78.8%
viability, T/C [17]: 51.1%
viability, T/C (second compound 9.49 µM, first compound 31.6 pM): 83.2%
viability, T/C (second compound 9.49 µM, first compound 0.0001 µM): 83.7%
viability, T/C [18]: 83.8%
viability, T/C [19]: 79.9%
viability, T/C [20]: 78.6%
viability, T/C [21]: 40.6%
viability, T/C (second compound 30 µM, first compound 31.6 pM): 69.2%
viability, T/C (second compound 30 µM, first compound 0.0001 µM): 71.3%
viability, T/C [22]: 72.7%
viability, T/C [23]: 68.5%
viability, T/C [24]: 65.3%
viability, T/C [25]: 46.2%

COc1c(OCCCN2CCOCC2)ccc2c3n(c(=NC(=O)c4cnc(N)nc4)nc12)CCN3
viability, T/C (compound 0.00316 µM): 101%
viability, T/C (compound 0.01 µM): 100% and 94.6%
viability, T/C (compound 0.0316 µM): 98.1% and 97.2%
viability, T/C (compound 0.1 µM): 98% and 87.7%
viability, T/C (compound 0.316 µM): 97.2% and 80.9%
viability, T/C (compound 1 µM): 56.2% and 19.3%
IC50 (curve of compound): > 1000 nM and 555 nM

CC(=O)Nc1cccc(-n2c(=O)n(C3CC3)c(=O)c3c(Nc4ccc(I)cc4F)n(C)c(=O)c(C)c32)c1
viability, T/C (compound 94.9 pM): 98.3% and 96.1%
viability, T/C (compound 0.0003 µM): 86.1% and 84.3%
viability, T/C (compound 0.000949 µM): 70.9% and 75.1%
viability, T/C (compound 0.003 µM): 60.2% and 62.8%
viability, T/C (compound 0.00949 µM): 29.5% and 37.9%
viability, T/C (compound 0.03 µM): 13.8% and 13.7%
IC50 (curve of compound): 3.89 nM and 5.29 nM

CC(C)CC(NC(=O)C(Cc1ccccc1)NC(=O)c1cnccn1)B(O)O (stereo not drawn)
viability, T/C (compound 31.6 pM): 106% and 102%
viability, T/C (compound 0.0001 µM): 98.4% and 102%
viability, T/C (compound 0.000316 µM): 99.5% and 94.6%
viability, T/C (compound 0.001 µM): 109% and 101%
viability, T/C (compound 0.00316 µM): 100% and 97.2%
viability, T/C (compound 0.01 µM): 93.2% and 81.1%
IC50 (curve of compound): > 10 nM

Cc1nc(NC(=O)N2CCCC2C(N)=O)sc1-c1ccnc(C(C)(C)C(F)(F)F)c1 (stereo not drawn)
viability, T/C (compound 0.0316 µM): 97.1% and 95.8%
viability, T/C (compound 0.1 µM): 96.6% and 101%
viability, T/C (compound 0.316 µM): 95.6% and 96.5%
viability, T/C (compound 1 µM): 93.9% and 93.5%
viability, T/C (compound 3.16 µM): 89.7% and 88.6%
viability, T/C (compound 10 µM): 85.2% and 79.1%
IC50 (curve of compound): > 10000 nM

Cc1nc(NC(=O)N2CCCC2C(N)=O)sc1-c1ccnc(C(C)(C)C(F)(F)F)c1 (stereo not drawn) + CC(C)NCC(C(=O)N1CCN(c2ncnc3c2C(C)CC3O)CC1)c1ccc(Cl)cc1
IC50 [1]: > 10000 nM
IC50 [2]: > 10000 nM
IC50 [3]: > 10000 nM
IC50 [4]: > 10000 nM
IC50 [5]: 5510 nM
viability, T/C [26]: 99.7%
viability, T/C [27]: 91.4%
viability, T/C (second compound 0.3 µM, first compound 0.316 µM): 91.7%
viability, T/C (second compound 0.3 µM, first compound 1 µM): 89.8%
viability, T/C (second compound 0.3 µM, first compound 3.16 µM): 79.8%
viability, T/C (second compound 0.3 µM, first compound 10 µM): 70.4%
viability, T/C [28]: 87.2%
viability, T/C [29]: 91.5%
viability, T/C (second compound 0.949 µM, first compound 0.316 µM): 84%
viability, T/C (second compound 0.949 µM, first compound 1 µM): 81%
viability, T/C (second compound 0.949 µM, first compound 3.16 µM): 79.1%
viability, T/C (second compound 0.949 µM, first compound 10 µM): 81.3%
viability, T/C [30]: 83.5%
viability, T/C [31]: 83.9%
viability, T/C (second compound 3 µM, first compound 0.316 µM): 80%
viability, T/C (second compound 3 µM, first compound 1 µM): 77.3%
viability, T/C (second compound 3 µM, first compound 3.16 µM): 76.3%
viability, T/C (second compound 3 µM, first compound 10 µM): 77.3%
viability, T/C [32]: 81.7%
viability, T/C [33]: 81%
viability, T/C (second compound 9.49 µM, first compound 0.316 µM): 76.1%
viability, T/C (second compound 9.49 µM, first compound 1 µM): 75.8%
viability, T/C (second compound 9.49 µM, first compound 3.16 µM): 69.6%
viability, T/C (second compound 9.49 µM, first compound 10 µM): 64%
viability, T/C [34]: 71.7%
viability, T/C [35]: 69.8%
viability, T/C (second compound 30 µM, first compound 0.316 µM): 66.4%
viability, T/C (second compound 30 µM, first compound 1 µM): 58%
viability, T/C (second compound 30 µM, first compound 3.16 µM): 56.1%
viability, T/C (second compound 30 µM, first compound 10 µM): 45.1%

COC1CC2CCC(C)C(O)(O2)C(=O)C(=O)N2CCCCC2C(=O)OC(C(C)CC2CCC(OCCO)C(OC)C2)CC(=O)C(C)C=C(C)C(O)C(OC)C(=O)C(C)CC(C)C=CC=CC=C1C (stereo not drawn) + CC(C)NCC(C(=O)N1CCN(c2ncnc3c2C(C)CC3O)CC1)c1ccc(Cl)cc1
IC50 [1]: > 100 nM
IC50 [2]: > 100 nM
IC50 [3]: > 100 nM
IC50 [4]: > 100 nM
IC50 [5]: 8.56 nM
viability, T/C [6]: 93.1%
viability, T/C [7]: 91.7%
viability, T/C [8]: 94%
viability, T/C [9]: 95%
viability, T/C [26]: 93.7%
viability, T/C [27]: 91.4%
viability, T/C [10]: 93.3%
viability, T/C [11]: 87%
viability, T/C [12]: 91.8%
viability, T/C [13]: 91.8%
viability, T/C [28]: 87.7%
viability, T/C [29]: 89.4%
viability, T/C [14]: 82.2%
viability, T/C [15]: 87.6%
viability, T/C [16]: 80.9%
viability, T/C [17]: 82.2%
viability, T/C [30]: 82.2%
viability, T/C [31]: 79.1%
viability, T/C [18]: 81.2%
viability, T/C [19]: 77.8%
viability, T/C [20]: 73.5%
viability, T/C [21]: 74.9%
viability, T/C [32]: 65.8%
viability, T/C [33]: 60.4%
viability, T/C [22]: 61.6%
viability, T/C [23]: 64.3%
viability, T/C [24]: 55.8%
viability, T/C [25]: 48.3%
viability, T/C [34]: 39.9%
viability, T/C [35]: 31%
